These results are taken from patent publication US3956314A, “Derivatives of 2-pyrrolidinone” (U.C.B., Societe Anonyme, priority 1970, dated 1976).

The test system of one data set is Wistar rats. Briefly: anxiolytic action: shuttle box conditioning test, painful electric shocks, second sequence. It counts as in vivo. On the procedure:
Wistar rats (weighing 100 g. ± 20 g.) are first permitted to become accustomed, during 10 minutes, to conditioning cages of the shuttle box type, after which they are subjected to a first sequence of 20 painful electric shocks of 3 seconds on their paws repeated every 30 seconds. During this first sequence, the rats ran away before the end of the shock about 15 times out of 20 shocks.
On the other hand, if these same animals are subjected to a sequence of shocks 4 hours later, paradoxically, instead of improving their performance (as in the course of a normal training) a reduction in the number of evasions is found: the animals have become set and are less successful in running away before the end of the shocks. This behavior is attributed to an anxiety state induced by the experimental situation.
Intraperitoneal administration of an anxiolytic substance to the rats, half an hour before the second sequence is carried out, improves their performance (increase in the number of evasions before the end of the shock).
A group of rats, to which a substance to be tested is administered, is compared with a group of control rats, which has been injected with physiological serum under the same conditions. […]

Data set [1] can be described thus: toxicity determined in rat by intraperitoneal administration (LD50). Particulars: in vivo, ip. From the text: Moreover, the compounds of the invention have low toxicity.

Regarding `O=C1CC(c2ccc(Cl)cc2)CN1` (centres unmarked) [T, 4-(para-chlorophenyl)-pyrrolidone-(2)], the “performance (in words)” value in the data set on Wistar rats (dose of 0.32 mmole/kg) is listed as “a decrease in the performance”. Further, in the data set on Wistar rats (rat shuttle box test), the “anxiolytic action (in words)” value is given as “practically no anxiolytic action”. As usually defined, the LD50 is the dose at which mortality reaches 50%. A low value points to greater toxicity. Take `CNC1=Nc2ccc(Cl)cc2C(c2ccccc2)=[N+]([O-])C1` [S, 7-chloro-2-methylamino-5-phenyl-3H-1,4-benzodiazepine-4-oxide]: the median lethal dose (LD50) in data set [1] (reference drug) was determined as 240 mg/kg. As for `O=C1NC[C@H](c2ccc(Cl)cc2)[C@@H]1c1ccccc1` (relative stereo) [E, 4-p-chlorophenyl-3-phenyl-2-pyrrolidinone (cis isomer)], the LD50 in data set [1] was 320 mg/kg. On the same count and under the same terms, the same measure for `CC1C(=O)NCC1c1ccc(Cl)cc1` [Compound D, 4-p-chlorophenyl-3-methyl-2-pyrrolidinone (trans isomer)]: 306 mg/kg.
